According to patent US7109341B2, “Therapeutic amides” (Wayne State University, priority 2002, dated 2006):
Several values for one entry are separate records, joined by “and”; a condition that tells them apart may be missing. Identical values can stand only once. Like-named read-outs stand apart in the source and are kept apart here.

Legend:
[1] = test system: Pancreatic Ductal Adenocarcinoma 03; details: footnote, no dose given; cited from earlier work;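 as to T/C: mice carrying bilateral subcutaneous tumors, with tumor weight estimated from two-dimensional caliper readings taken twice a week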;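 as to activity rating: mice carrying bilateral subcutaneous tumors, with tumor weight estimated from two-dimensional caliper readings taken twice a week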
[2] = test system: Pancreatic Ductal Adenocarcinoma 03; details: for Comments (Active/Inactive) / Comments (activity rating) / Drug Death / Log Cell Kill / Median Tumor Burden in mg on d17 / T-C / T/C % / Time to 1000 mg / Tumor Free on 148: BDF1 males;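 as to T/C: mice carrying bilateral subcutaneous tumors, with tumor weight estimated from two-dimensional caliper readings taken twice a week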;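 as to activity rating: mice carrying bilateral subcutaneous tumors, with tumor weight estimated from two-dimensional caliper readings taken twice a week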
From the text: (§1) Pancreatic ductal adenocarcinoma-03, mammary adenocarcinoma-16/C, mammary adenocarcinoma-17/Adr, and human melanoma LOX were used in the studies. Tumors were maintained in the mouse strain of origin (C57B1/6 for Panc-03 and C3H for the mammary tumors). Balb/c SCID mice (B and T cell deficient) were used for tumor maintenance and chemotherapy trials involving the human melanoma LOX. Tumors were transplanted into the appropriate F1 hybrid (B6D2F1=C57B 1/6 female× DBA/2 male) or the strain of origin for the chemotherapy trials. Individual mouse body weights for each experiment were within 5 grams, and all mice were over 17 grams at the start of therapy. The mice were supplied food and water ad libitum.
(§2) Animals were pooled, implanted subcutaneously with 30 to 60 mg tumor fragments by a 12 gauge trocar on day 0, and again pooled before unselective distribution to the various treatment and control groups. For early stage treatment, chemotherapy was started within 1 to 3 days after tumor implantation while the number of cells was relatively small (10^7 to 10^8 cells). For upstaged or advanced staged trials, the tumors were allowed to grow for five or more days before treatment was started. Tumors were measured with a caliper twice weekly. […] Tumor weights are estimated from two-dimensional measurements:
(§3) Tumor weight (in mg)=(a×b^2)/2, where a and b are the tumor length and width in (mm), respectively.
a) Tumor growth delay (T−C value), where T is the median time (in days) required for the treatment group tumors to reach a predetermined size (e.g., 1,000 mg), and C is the median time (in days) for the control group tumors to reach the same size. Tumor-free survivors were are excluded from these calculations (cures are tabulated separately). This value is an important criterion of anti-tumor effectiveness because it allows the quantification of tumor cell kill.
(§4) b) Calculation of tumor cell kill for subcutaneously (SC) growing tumors. […] The conversion of the T−C values to log10 cell kill is possible because the Td of tumors re-growing post treatment (Rx) approximates the Td values of the tumors in untreated control mice.
(§5) It should be noted that an activity rating of +++ to ++++ is needed to effect partial regression (PR) or complete regression (CR) of 100 to 300 mg size masses of most transplanted solid tumors of mice. Thus, an activity rating of + or ++ would not be scored as active by usual clinical criteria. A PR is a reduction in tumor mass to less than 50% of pretreatment size. A CR is a reduction in tumor mass to below palpable size (i.e., reduction to zero detectable mass).
(§6) The T/C value in percent is an indication of anti-tumor effectiveness: A T/C=0% means no tumor growth. A T/C=100% means no anti-tumor activity, i.e., the treated and control tumors grew equally. […] A T/C value<10% is considered to indicate highly significant anti-tumor activity, and is the level used by NCI to justify a clinical trial if toxicity, formulation, and certain other requirements are met (termed DN-2 level activity).
(§7) Compounds as their sodium salts were prepared in a 1% sodium bicarbonate solution, H2O or phosphate buffered saline (PBS), with pH adjusted to 7.0 to 7.5 with HCl, and administered intravenously (IV) or orally (PO), at injection volumes of 0.2 mL per injection.
Thus, for this test, all compounds initially were to be given IP, in an attempt to identify a suitable alternate route of administration.

[3] = Water solubility noted on drug preparation for injection; format: physicochemical; details: white solid + 3% EtOH + 1% POE + 0.25% NaHCO3 + saline, pH = 9 → 7 with 1N HCl
Protocol: as §7

[4] = test system: Mammary Adenocarcinoma 16/C; details: Cage 4, IV, qd 1–5, total 240 mg/kg
From the text: Table 7. […] The animal was then re-implanted with Mam16/C/71.

[5] = test system: Mammary Adenocarcinoma 16/C
From the text: as §1, §2, §3
a) Tumor growth delay (T−C value), where T is the median time (in days) required for the treatment group tumors to reach a predetermined size (e.g., 1,000 mg), and C is the median time (in days) for the control group tumors to reach the same size. Tumor-free survivors were are excluded from these calculations (cures are tabulated separately).
as §4, §5, §6, §7

[6] = test system: Pancreatic Ductal Adenocarcinoma 03; experiment: Evaluation against early stage Pancreatic Ductal Adenocarcinoma 03, IP route, C57 females (Table 9); format: in vivo
Protocol: The IP route was used for two reasons. […] This is approximately 40% of the dose given IV with the racemic mix (60 mg/kg, see Table 7).

[7] = test system: Mammary Adenocarcinoma 17/ADR; experiment: Evaluation against early stage Mammary Adenocarcinoma 17/ADR, C3H/He females (Table 3); format: in vivo; details: IV
[8] = test system: Pancreatic Adenocarcinoma 03; experiment: Evaluation against early stage Pancreatic Adenocarcinoma 03 in BDF1 male mice (Table 1); format: in vivo, mouse; details: Cage 8; IV; QD 3–5; total 180 mg/kg
[9] = test system: Pancreatic Ductal Adenocarcinoma #03; experiment: Evaluation against early stage Pancreatic Ductal Adenocarcinoma #03, BD1 female mice (Table 2); details: Cage 2; IV; QD3–6, 10; total 300 mg/kg
[10] = IV; total dose; cited from earlier work
[11] = test system: Pancreatic Ductal Adenocarcinoma 03; experiment: Evaluation against early stage Pancreatic Ductal Adenocarcinoma 03 in female BDF1 mice (Table 4); format: in vivo, mouse; details: IV
From the text: The higher dose requirement for compound 14e may be a disadvantage over compound 11b (Cage 14).

[12] = Cage 11, IP, 80 mg/kg/inj days 3, 5, 11, 13, 15, total 400 mg/kg
[13] = Cage 12, IP, 50 mg/kg/inj Q2d×7 from day 3, total 350 mg/kg
[14] = IP, Q2d: 3–15, total dosage 350 mg/kg
[15] = IP, d3, 5, 11, 13, 15, total dosage 400 mg/kg
[16] = Cage 2, IV, Q2Dx8, total 480 mg/kg
[17] = Cage 5, Qd3–7, total 157.5 mg/kg
[18] = Cage 2, 7.5 mg/kg/inj days 1, 7, total 15 mg/kg
[19] = Cage 4, 56 mg/kg/injection QD-1–5 and 10, total 336 mg/kg
[20] = Cage 5, 57 mg/kg/injection QD 3–9, total 399 mg/kg
[21] = Cage 6, 38 mg/kg/injection QD 3–9, total 266 mg/kg

CC(=O)O[C@H]1C(=O)[C@@]2(C)[C@H]([C@H](OC(=O)c3ccccc3)[C@]3(O)C[C@H](OC(=O)[C@H](O)[C@@H](NC(=O)c4ccccc4)c4ccccc4)C(C)=C1C3(C)C)[C@]1(OC(C)=O)CO[C@@H]1C[C@@H]2O [Taxol]
sensitivity of this tumor to standard agents (activity rating) [1]: This tumor is highly sensitive to Taxol (++++ activity rating). (Highly active >2.8)

O=c1[nH]cc(F)c(=O)[nH]1 [Compound 5-FU, 5-FU]
sensitivity of this tumor to standard agents (activity rating) [1]: It is modestly responsive to 5-FU (+ activity). (0.7–1.2)

CC(Oc1ccc(Oc2ccc3ccc(Br)cc3n2)cc1)C(=O)O [Compound 11c (R), 2-{4-{(7-bromo-2-quinolinyl)oxy}phenoxy}propionic acid, reference compound]
Activity Rating [2, 12]: ++++ (Highly active >2.8) | T/C [2, 12]: 0% | log cell kill [2, 12]: 3.3 | tumor free on day 148 [2, 12]: 1/5 and One mouse remained tumor free | Activity Rating [2, 13]: ++ (1.3–1.9) | T/C [2, 13]: 3% | log kill [2, 13]: 1.4 | Comments (Active/Inactive) [2, 14]: Active | Comments (activity rating) [2, 14]: (++) (1.3–1.9) | Drug Death [2, 14]: 0/5 | Log Cell Kill [2, 14]: 1.4 | Median Tumor Burden in mg on d17 [2, 14]: 63 mg | T-C [2, 14]: 10 days | T/C % [2, 14]: 3% | Time to 1000 mg [2, 14]: 25 days | Tumor Free on 148 [2, 14]: 0/5 | Comments (Active/Inactive) [2, 15]: Active | Comments (activity rating) [2, 15]: (++++) (Highly active >2.8) | Drug Death [2, 15]: 0/5 | Log Cell Kill [2, 15]: 3.3 | Median Tumor Burden in mg on d17 [2, 15]: 0 mg | T-C [2, 15]: 23 days | T/C % [2, 15]: 0% | Time to 1000 mg [2, 15]: 38 days | Tumor Free on 148 [2, 15]: 1/5 | Day of Wt. Loss Nadir ([2]; mouse, in vivo): 9 days and 8 days | day of full weight recovery ([2]; mouse, in vivo): 16 days and 11 days | day of weight loss nadir ([2]; mouse, in vivo): 9 days and 8 days | Preparation: state of the injection preparation [3]: Compound 11c (R): white solid + 3% EtOH + 1% POE + 0.25% NaHCO3 + saline → solution (pH = 9 → 7 with 1N HCl); 0.5 ml/mouse/inj, IP. | Day of Wt. Loss Nadir [4]: 9 days | Drug Death (day of death) [4]: One animal died and 1/5 | Log Cell Kill [4]: 1.8 | Mean Body Wt. Loss in g/mouse [4]: −6.0 g/mouse | Median Tumor Burden in mg on d 9 (range) [4]: 0 mg | Percent Body Weight Loss [4]: −29.4% | T-C [4]: 7.2 days | T/C % [4]: 0% | Time to 1,000 mg in days (range) [4]: 15.2 days | Tumor Free on d 161 [4]: 0/5 | day of body weight recovery [4]: ≤ 13 days | toxicity observations [4]: diarrhea | body weight loss day 6 ([4]; day 6): −17.5% | Drug Death (day of death) [5, 16]: 0/5 | Log Cell Kill [5, 16]: 4.8 | Median Tumor Burden in mg on day 7 (range) [5, 16]: 0 mg | T-C [5, 16]: 16 days | T/C % [5, 16]: 0% | Time to 1000 mg in days (range) [5, 16]: 22 days | Tumor Free on d28 [5, 16]: no cures and 0/5 | Day of Wt. Loss Nadir ([5]; mouse, in vivo): 14 days | Percent Body Weight Loss ([5]; mouse, in vivo): −4.3% | Comments (activity rating) ([6]; Cage 4, Qd3–7, total 260 mg/kg): LD20 | Day of Wt. Loss Nadir ([6]; Cage 4, Qd3–7, total 260 mg/kg): 10 days | Drug Death (day of death) ([6]; Cage 4, Qd3–7, total 260 mg/kg): One drug death and 1/5 | Log Cell Kill ([6]; Cage 4, Qd3–7, total 260 mg/kg): 1.5 | Mean Body Wt. Loss in g/mouse ([6]; Cage 4, Qd3–7, total 260 mg/kg): −3.2 g/mouse | Median Tumor Burden in mg on d14 (range) ([6]; Cage 4, Qd3–7, total 260 mg/kg): 126 mg | Percent Body Weight Loss ([6]; Cage 4, Qd3–7, total 260 mg/kg): −16.7% | T-C ([6]; Cage 4, Qd3–7, total 260 mg/kg): 10.5 days | T/C % ([6]; Cage 4, Qd3–7, total 260 mg/kg): 12.6% | Time to 1000 mg in days (range) ([6]; Cage 4, Qd3–7, total 260 mg/kg): 24.5 days | Tumor Free on d31 ([6]; Cage 4, Qd3–7, total 260 mg/kg): 0/5 | day of full body weight recovery ([6]; Cage 4, Qd3–7, total 260 mg/kg): ≤ 17 days | Day of Wt. Loss Nadir [6, 17]: 9 days | Drug Death (day of death) [6, 17]: 0/5 | Log Cell Kill [6, 17]: 1.58 | Mean Body Wt. Loss in g/mouse [6, 17]: −0.0 g/mouse | Median Tumor Burden in mg on d14 (range) [6, 17]: 260 mg | T-C [6, 17]: 11 days | T/C % [6, 17]: 26% | Time to 1000 mg in days (range) [6, 17]: 25 days | Tumor Free on d31 [6, 17]: 0/5

COc1cccc2c1C(=O)c1c(O)c3c(c(O)c1C2=O)C[C@@](O)(C(=O)CO)C[C@@H]3O[C@H]1C[C@H](N)[C@H](O)[C@H](C)O1 [Adriamycin, reference compound]
% Body Wt Loss at Nadir [7, 18]: −1.4% | % T/C mass [7, 18]: 90% | Activity Rating [7, 18]: inactive | Day of Nadir [7, 18]: 7 days | Drug Deaths [7, 18]: 0/5 | Growth Delay [7, 18]: 0 days | Log Kill [7, 18]: none | Median Tumor Mass on Day 9 (Range) [7, 18]: 1086 | Tumor Free day-21 [7, 18]: 0/5 | sensitivity of this tumor to standard agents (activity rating) [1]: It is nicely sensitive to Adriamycin (+++ activity). (2.0–2.8)

CC(Oc1ccc(Oc2cnc3ccc(Cl)cc3n2)cc1)C(=O)O (racemic) [XK469, reference compound]
Day of Wt. Loss Nadir [8]: 8 days | Drug Deaths (days of death) [8]: no drug deaths and 0/5 | Log Kill [8]: 1.43 and 1.4 | Mean Body Wt. Loss in g/mouse [8]: −3.6 g/mouse | Median tumor burden in mg on day 14 (range) [8]: 189 mg | Percent Body Wt. Loss [8]: −15.5% | T-C [8]: 9 days | T/C % [8]: 11% | Time to 1000 mg days (range) [8]: 20 days | Tumor Free on day 21 [8]: 0/5 | day of body weight recovery [8]: 13 days | % Body Wt Loss at Nadir [7, 19]: −7.1% | % T/C mass [7, 19]: 9% | Activity Rating [7, 19]: ++++ (Highly active >2.8) | Day of Nadir [7, 19]: 8 days | Drug Deaths [7, 19]: 0/5 | Growth Delay [7, 19]: 15.5 days | Log Kill [7, 19]: 4.2 | Median Tumor Mass on Day 9 (Range) [7, 19]: 108 | Tumor Free day-21 [7, 19]: 0/5 | Activity Rating [9]: ++++ (Highly active >2.8) | Day of Wt. Loss Nadir [9]: 8 days | Drug Deaths (day of death) [9]: 0/5 | Growth Delay [9]: 28.1 days | Log Cell Kill [9]: 3.3 | Mean Body Wt. Loss (g/mouse) [9]: −3.2 g/mouse | Median Tumor Burden in mg on d18 (Range) [9]: 64 mg | T/C % [9]: 4% | Time in days to 1000 mg (range) [9]: 41.1 days | Tumor Free on d 154 [9]: 1/5 | day of full body weight recovery [9]: ~12 days | MTD (historical) [10]: 450 to 480 mg/kg | % Body Wt Loss at Nadir [11, 20]: −6.7% | % T/C mass [11, 20]: 4.1% | Activity Rating [11, 20]: ++ (1.3–1.9) | Day of Nadir [11, 20]: 8 days | Drug Deaths [11, 20]: 0/5 | Growth Delay [11, 20]: 11.5 days | Log Kill [11, 20]: 1.7 | Median Tumor Mass on Day 14 (Range) [11, 20]: 63 | Tumor Free day-37 [11, 20]: 0/5 | % Body Wt Loss at Nadir [11, 21]: −6.7% | % T/C mass [11, 21]: 8.3% | Activity Rating [11, 21]: ++ (1.3–1.9) | Day of Nadir [11, 21]: 5 days | Drug Deaths [11, 21]: 0/5 | Growth Delay [11, 21]: 9.5 days | Log Kill [11, 21]: 1.4 | Median Tumor Mass on Day 14 (Range) [11, 21]: 126 | Tumor Free day-37 [11, 21]: 0/5

CC[C@]1(O)C[C@@H]2CN(CCc3c([nH]c4ccccc34)[C@@](C(=O)OC)(c3cc4c(cc3OC)N(C)[C@H]3[C@@](O)(C(=O)OC)[C@H](OC(C)=O)[C@]5(CC)C=CCN6CC[C@]43[C@@H]65)C2)C1 [Vinblastine]
sensitivity of this tumor to standard agents (activity rating) [1]: It is insensitive to Vinblastine.
